Values of other authors, collected in patent publication US20210319872A1, “DRUG AND DEVICE COMBINATION PRODUCTS WITH IMPROVED SAFETY AND EFFICACY PROFILES” (priority 2016, published 2021).
Where two headings read alike, the source gives them in different places.

Cc1nc2n(c(=O)c1CCN1CCC(c3noc4cc(F)ccc34)CC1)CCCC2 [Risperidone (Risperdal)]
Akathisia (in vivo): Neurologic: Akathisia (oral, up to 10%; IM, 4% to 11%), Dizziness
Anxiety (in vivo): Psychiatric: Anxiety (oral, up to 16% IM, less than 4%)
Constipation (in vivo): Gastrointestinal: Constipation (oral, 8% to 21%; IM, 5% to 7%),
Diarrhea (in vivo): Diarrhea (oral, 1% to 8%; IM, less than 4%), Excessive salivation
Dystonia (in vivo): < 5%; pediatric, 2% to 6%; IM, adult, less than 4%), Parkinsonism
Excessive salivation (in vivo): (oral, 1% to 10%; IM, 1% to 4%), Increased appetite (oral, adult,
Fatigue (in vivo): 3% to 9%), Pain, General (IM, 1% to 4%)
Hyperprolactinemia (in vivo): < 1%; pediatrics, 49% to 87%; IM, less than 4%), Weight increased
Increased appetite (in vivo): more than 5%; pediatric, 4% to 47%; IM, 4%), Indigestion (oral,
Indigestion (in vivo): 2% to 10%; IM, 6%), Nausea (oral, 4% to 16%; IM, 3% to 4%),
Nausea (in vivo): 2% to 10%; IM, 6%), Nausea (oral, 4% to 16%; IM, 3% to 4%),
Pain, General (in vivo): 3% to 9%), Pain, General (IM, 1% to 4%)
Parkinsonism (in vivo): (oral, 6% to 28%; IM, 8% to 15%), Sedated (oral, adult, 3% to 6%;
Rash (in vivo): IM, less than 4%)
Syncope (in vivo): Syncope (oral, up to 1%; IM, up to 2%)
Tardive dyskinesia (in vivo): less than 5%; IM, less than 4%)
Tremor (in vivo): pediatric, 8% to 29%), Tremor (oral, 2% to 12%; IM, 3% to 24%)
Upper respiratory infection (in vivo): respiratory infection (oral, 2% to 8%; IM, 2% and 6%)
Vomiting (in vivo): < 16%), Vomiting (oral, 10% to 25%; IM, less than 4%), Xerostomia
Weight increased (in vivo): (oral, adult, 8.7% to 20.9%; pediatric, 14% to 32.6%; IM, adult, 8%
Xerostomia (in vivo): (oral, 4% to 15%; IM, up to 7%)
Akathisia (in vivo, po): Neurologic: Akathisia (oral, up to 10%; IM, 4% to 11%), Dizziness
Anxiety (in vivo, po): Psychiatric: Anxiety (oral, up to 16% IM, less than 4%)
Cerebrovascular accident (in vivo, po): Neurologic: Cerebrovascular accident (oral, less than 5%; IM, less
Constipation (in vivo, po): Gastrointestinal: Constipation (oral, 8% to 21%; IM, 5% to 7%),
Diarrhea (in vivo, po): Diarrhea (oral, 1% to 8%; IM, less than 4%), Excessive salivation
Excessive salivation (in vivo, po): (oral, 1% to 10%; IM, 1% to 4%), Increased appetite (oral, adult,
Fatigue (in vivo, po): Other: Fatigue (oral, adult, 1% to 3%; pediatric, 18% to 42%; IM,
Hyperprolactinemia (in vivo, po): < 1%; pediatrics, 49% to 87%; IM, less than 4%), Weight increased
Increased appetite (in vivo, po): more than 5%; pediatric, 4% to 47%; IM, 4%), Indigestion (oral,
Indigestion (in vivo, po): 2% to 10%; IM, 6%), Nausea (oral, 4% to 16%; IM, 3% to 4%),
Nasal congestion (in vivo, po): 4%), Nasal congestion (oral, adult, 4% to 6%; pediatric, 13%),
Nausea (in vivo, po): 2% to 10%; IM, 6%), Nausea (oral, 4% to 16%; IM, 3% to 4%),
Pain in throat (in vivo, po): throat (oral, adult, more than 5%; pediatric, 3% to 10%), Upper
Parkinsonism (in vivo, po): (oral, 6% to 28%; IM, 8% to 15%), Sedated (oral, adult, 3% to 6%;
Rash (in vivo, po): Dermatologic: Rash (oral, adults, 1% to 4%; pediatrics, up to 11%;
Syncope (in vivo, po): Syncope (oral, up to 1%; IM, up to 2%)
Tardive dyskinesia (in vivo, po): less than 5%; IM, less than 4%)
Tremor (in vivo, po): pediatric, 8% to 29%), Tremor (oral, 2% to 12%; IM, 3% to 24%)
Upper respiratory infection (in vivo, po): respiratory infection (oral, 2% to 8%; IM, 2% and 6%)
Vomiting (in vivo, po): 16%), Vomiting (oral, 10% to 25%; IM, less than 4%), Xerostomia
Weight increased (in vivo, po): (oral, adult, 8.7% to 20.9%; pediatric, 14% to 32.6%; IM, adult, 8%
Xerostomia (in vivo, po): (oral, 4% to 15%; IM, up to 7%)

CCC(=O)C(CC(C)N(C)C)(c1ccccc1)c1ccccc1 (stereo not shown) [Methadone]
Common side effect, Cardiovascular (in vivo): Cardiovascular: Hypotension
Common side effect, Endocrine metabolic (in vivo): Endocrine metabolic: Diaphoresis
Common side effect, Gastrointestinal (in vivo): Gastrointestinal: Constipation, Nausea, Vomiting
Common side effect, Neurologic (in vivo): Neurologic: Asthenia, Dizziness, Lightheadedness, Sedated
Serious side effect, Endocrine metabolic (in vivo): Endocrine metabolic: Hypoglycemia
Serious side effect, Other (in vivo): Other: Drug dependence
Serious side effect, Respiratory (in vivo): Respiratory: Respiratory acidosis, Respiratory arrest, Respiratory

Nc1cc(N2CCCCC2)nc(N)[n+]1[O-] [Minoxidil]
Body fluid retention (incidence) (in vivo): Endocrine metabolic: Body fluid retention (7%), Hypernatremia
Electrocardiogram abnormal (incidence) (in vivo): abnormal (60%), Pericardial effusion (3%), Pericarditis,
Pericardial effusion (incidence) (in vivo): abnormal (60%), Pericardial effusion (3%), Pericarditis,

OCCN(CCO)c1nc(N2CCCCC2)c2nc(N(CCO)CCO)nc(N3CCCCC3)c2n1 [Dipyridamole]
Bronchospasm (IV): Respiratory: Bronchospasm (IV, 0.2%)
Chest pain (IV): Cardiovascular: Chest pain (IV, up to 30%), Electrocardiogram
Dizziness (IV): 11.8%
Flushing (IV): 3.4%
Myocardial infarction (IV): 0.1%
Ventricular tachycardia (IV): tachycardia (IV, 0.2%)
Abdominal discomfort (oral): Gastrointestinal: Abdominal discomfort (oral, 6.1%)
Dizziness (oral): 13.6%
Headache (oral): 2.3%
Rash (oral): 2.3%

CCOC(=O)[C@H](CCc1ccccc1)N[C@@H](C)C(=O)N1[C@H](C(=O)O)C[C@@H]2CCC[C@@H]21 [Ramipril (Altace)]
Cough (in vivo): Respiratory: Cough (8% to 12%)
Dizziness (in vivo): Neurologic: Asthenia, Dizziness (2.2% to 4%), Headache (5.4%)
Headache (in vivo): Neurologic: Asthenia, Dizziness (2.2% to 4%), Headache (5.4%)
Hypotension (in vivo): Cardiovascular: Hypotension (11%)

CCOC(=O)[C@H](CCc1ccccc1)N[C@@H](C)C(=O)N1Cc2cc(OC)c(OC)cc2C[C@H]1C(=O)O [Moexipril (Univasc)]
Common side effects, listed without incidence (in vivo): Other: Influenza-like symptoms
Cough (in vivo): Respiratory: Cough (6.1%)
Diarrhea (in vivo): Gastrointestinal: Diarrhea (3.1%)
Dizziness (in vivo): Neurologic: Dizziness (4.3%)

CC(=O)O[C@]1(C(C)=O)CC[C@H]2[C@@H]3CCC4=CC(=O)CCC4=C3[C@@H](c3ccc(N(C)C)cc3)C[C@@]21C [Ella]
Headache (in vivo): Neurologic: Headache (18% to 19%)

CCOC(=O)[C@H](CCc1ccccc1)N[C@@H](C)C(=O)N1CCC[C@H]1C(=O)O [Enalapril (Vasotec)]
Angioedema (in vivo): Other: Angioedema (0.1% to 1%)
Dizziness (in vivo): Neurologic: Dizziness (4.3% to 7.9%)
Fatigue (in vivo): Other: Fatigue (3%)
Hyperkalemia (in vivo): Endocrine metabolic: Hyperkalemia (1% to 3.8%)
Hypotension (in vivo): Cardiovascular: Hypotension (0.9% to 6.7%)
Serum creatinine raised (in vivo): raised (0.2% (hypertension) to 20% (hypertension with renal artery

O=C1CC2(CCCC2)CC(=O)N1CCCCN1CCN(c2ncccn2)CC1 [Buspirone (Buspar)]
Cerebrovascular accident (in vivo): Neurologic: Cerebrovascular accident (less than 0.1%)
Congestive heart failure (in vivo): Cardiovascular: Congestive heart failure (less than 0.1%),
Dizziness (in vivo): Neurologic: Dizziness (12%), Headache (6%), Somnolence (10%)
Feeling nervous (in vivo): Psychiatric: Feeling nervous (5%)
Headache (in vivo): Neurologic: Dizziness (12%), Headache (6%), Somnolence (10%)
Myocardial infarction (in vivo): Myocardial infarction (less than 0.1%)
Nausea (in vivo): Gastrointestinal: Nausea (8%)
Somnolence (in vivo): Neurologic: Dizziness (12%), Headache (6%), Somnolence (10%)

Fc1ccc([C@@H]2CCNC[C@H]2COc2ccc3c(c2)OCO3)cc1 [Paroxetine (Paxil)]
Abnormal ejaculation (in vivo): Reproductive: Abnormal ejaculation (13% to 28%), Erectile
Asthenia (in vivo): Neurologic: Asthenia (up to 22%), Dizziness (6% to 14%),
Constipation (in vivo): Gastrointestinal: Constipation (up to 16%), Diarrhea (up to 18%),
Diaphoresis (in vivo): Dermatologic: Diaphoresis (5% to 14%)
Diarrhea (in vivo): Gastrointestinal: Constipation (up to 16%), Diarrhea (up to 18%),
Dizziness (in vivo): Neurologic: Asthenia (up to 22%), Dizziness (6% to 14%),
Erectile dysfunction (in vivo): dysfunction (2% to 9%), Orgasm disorder (females; 2% to 9%),
Headache (in vivo): Headache (17% to 27%), Insomnia (up to 24%), Somnolence (up to
Nausea (in vivo): Loss of appetite (up to 9%), Nausea (up to 26%), Xerostomia (9%
Orgasm disorder (in vivo): dysfunction (2% to 9%), Orgasm disorder (females; 2% to 9%),
Palpitations (in vivo): Cardiovascular: Palpitations (up to 3%), Vasodilatation (2% to 4%)
Reduced libido (in vivo): Reduced libido (males: 6% to 15%; females: 0% to 9%)
Seizure (in vivo): Neurologic: Seizure (0.1%)
Somnolence (in vivo): ≤ 24%), Tremor (4% to 11%)
Tremor (in vivo): 24%), Tremor (4% to 11%)
Vasodilatation (in vivo): Cardiovascular: Palpitations (up to 3%), Vasodilatation (2% to 4%)
Xerostomia (in vivo): Loss of appetite (up to 9%), Nausea (up to 26%), Xerostomia (9%
Yawning (in vivo): Respiratory: Yawning (4%)

CCCCc1ncc(/C=C(\Cc2cccs2)C(=O)O)n1Cc1ccc(C(=O)O)cc1 [Eprosartan (Teveten)]
Dizziness (in vivo): Neurologic: Dizziness (3.8%)
Fatigue (in vivo): Other: Fatigue (1.4%)
Myalgia (in vivo): Musculoskeletal: Myalgia (1.9%)
Neutropenia (in vivo): Hematologic: Neutropenia (1.3%)
Serious side effects, listed without incidence or only as rare (in vivo): Dermatologic: Edema of face (rare)
